One data set concerns the target T1, RET M918T (Homo sapiens, UniProt P07949, M918T).
T1 construct: purchased Carna 08-508
Kind of data set: HTRF kinase activity inhibition, RET M918T. In kind it is biochemical. The conditions noted are these: ATP at Km. The text has this: 2.2 Experimental Reagents: • RET enzyme was purchased from Carna Company, and the article number was 08-159; • RET M918T enzyme was purchased from Carna Company, and the article number was 08-508; • KIF5B-RET was purchased from SignalChem Company, the article number was R02-19FG-05; • CCDC6-RET was purchased from SignalChem Company, the article number was R02-19BG-05; • RET V804M enzyme was purchased from Thermofisher Company, and the article number was PV6223; • RET V804L enzyme was purchased from Thermofisher Company, and the article number was PV4397; • HTRF KinEASE-TK kit was purchased from Cisbio Company, and the article number was 62TK0PEC; • ATP was purchased from Thermofisher Company, and the article number was PV3227; • 384-well plate was purchased from PerkinElmer Company, and the article number was 6007290.
In this experiment, a homogeneous time-resolved fluorescence (HTRF) method was used for the detection of compounds on RET kinase activity.

A further data set concerns the target T2, RET kinase (Homo sapiens, UniProt P07949).
T2 construct: purchased Carna 08-159
Kind of data set: HTRF kinase activity inhibition, RET wild-type. Format: biochemical. The conditions noted are these: ATP at Km. Put shortly: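 HTRF (KinEASE-TK) kinase assay with recombinant RET wild-type, RET V804M, RET V804L and KIF5B-RET enzymes plus ATP.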

For a further data set, the target named is T3, KDR kinase (Homo sapiens, UniProt P35968).
T3 construct: purchased Carna 08-191
T3 sequence (P35968 20-1356): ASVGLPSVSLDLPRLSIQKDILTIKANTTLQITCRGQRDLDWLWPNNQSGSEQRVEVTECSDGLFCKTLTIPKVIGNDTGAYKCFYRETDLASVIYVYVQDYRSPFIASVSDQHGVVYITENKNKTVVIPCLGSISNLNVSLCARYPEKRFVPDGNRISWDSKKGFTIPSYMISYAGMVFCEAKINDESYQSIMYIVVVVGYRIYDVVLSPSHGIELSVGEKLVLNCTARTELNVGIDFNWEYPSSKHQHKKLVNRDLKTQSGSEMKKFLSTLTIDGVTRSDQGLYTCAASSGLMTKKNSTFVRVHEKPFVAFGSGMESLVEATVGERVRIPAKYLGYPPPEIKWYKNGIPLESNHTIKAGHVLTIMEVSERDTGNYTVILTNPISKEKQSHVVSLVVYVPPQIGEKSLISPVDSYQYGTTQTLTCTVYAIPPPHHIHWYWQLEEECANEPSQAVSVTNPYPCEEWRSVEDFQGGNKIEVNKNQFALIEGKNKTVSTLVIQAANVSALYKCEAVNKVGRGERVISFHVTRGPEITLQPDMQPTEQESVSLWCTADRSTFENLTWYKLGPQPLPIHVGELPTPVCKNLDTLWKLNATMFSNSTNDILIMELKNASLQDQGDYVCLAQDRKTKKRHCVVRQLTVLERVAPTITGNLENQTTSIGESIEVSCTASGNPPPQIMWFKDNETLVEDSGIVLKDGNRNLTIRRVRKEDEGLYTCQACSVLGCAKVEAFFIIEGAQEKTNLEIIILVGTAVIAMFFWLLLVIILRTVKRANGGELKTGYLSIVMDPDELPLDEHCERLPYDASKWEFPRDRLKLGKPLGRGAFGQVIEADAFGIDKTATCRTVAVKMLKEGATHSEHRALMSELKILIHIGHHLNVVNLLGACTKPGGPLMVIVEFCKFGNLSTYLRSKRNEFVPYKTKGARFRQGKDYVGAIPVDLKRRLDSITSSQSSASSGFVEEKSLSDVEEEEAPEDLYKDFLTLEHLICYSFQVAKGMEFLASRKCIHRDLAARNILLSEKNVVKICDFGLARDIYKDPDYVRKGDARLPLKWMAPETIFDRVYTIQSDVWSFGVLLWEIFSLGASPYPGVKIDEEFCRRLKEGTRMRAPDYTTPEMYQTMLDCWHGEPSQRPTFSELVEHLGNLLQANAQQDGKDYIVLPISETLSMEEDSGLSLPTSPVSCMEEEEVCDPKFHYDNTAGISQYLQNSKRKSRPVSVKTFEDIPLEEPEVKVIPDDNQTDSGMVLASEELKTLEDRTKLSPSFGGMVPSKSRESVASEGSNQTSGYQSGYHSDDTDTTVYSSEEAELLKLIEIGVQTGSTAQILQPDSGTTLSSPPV
Kind of data set: HTRF kinase activity inhibition, KDR. The conditions noted are these: for pIC50: HTRF, ATP at Km; for Ratio (KDR/RET): KDR IC50 / RET IC50. Format: biochemical. Put shortly:
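Inhibition of KDR kinase activity measured by homogeneous time-resolved fluorescence with a tyrosine-kinase KinEASE substrate kit and ATP.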

Data set [1] deals with TT cells (MTC, RET C634W). Kind of data set: Inhibition of proliferation of TT cells (CellTiter-Glo, 72 h). Format: cell-based. The conditions noted are these: Homo sapiens. Put shortly:
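TT cells seeded overnight, then exposed to compound dilutions for 72 h at 37 °C, 5% CO2, with a solvent control. Viability read by CellTiter-Glo luminescence; IC50 from nonlinear regression of inhibition rate versus concentration.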

Data set [2] can be described thus: Balb/C mouse pharmacokinetics, oral 5 mg/kg. In kind it is in vivo, Balb/C mice. The conditions noted are these: male, p.o. 5 mg/kg, plasma; for MRT: read-out: Average residence time MRT; for Cmax: read-out: Blood concentration Cmax; for AUC(0-t): read-out: Curve area AUC0-t; for AUC(0-inf): read-out: Curve area AUC0-∞; for half-life: read-out: Half-life t1/2 (converted); for Tmax: read-out: Peak time tmax. Put shortly:
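Male Balb/C mice (6 per compound) were fasted overnight and dosed in 0.5% CMC-Na (1% Tween80) solution or suspension. EDTA-K2 plasma was sampled at 0, 0.5, 1, 2, 4, 6, 8 and 24 h. Compound levels were measured by LC/MS/MS after acetonitrile precipitation, and PK parameters were derived from the plasma profiles.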

In a further data set the target is T4, Ba/F3 KIF5B-RET cells (Homo sapiens, UniProt P07949).
T4 construct: fused on or other part: P33176 (Kinesin-1 heavy chain)
T4 sequence (P07949 whole entry, change not shown, the tested form may be a part): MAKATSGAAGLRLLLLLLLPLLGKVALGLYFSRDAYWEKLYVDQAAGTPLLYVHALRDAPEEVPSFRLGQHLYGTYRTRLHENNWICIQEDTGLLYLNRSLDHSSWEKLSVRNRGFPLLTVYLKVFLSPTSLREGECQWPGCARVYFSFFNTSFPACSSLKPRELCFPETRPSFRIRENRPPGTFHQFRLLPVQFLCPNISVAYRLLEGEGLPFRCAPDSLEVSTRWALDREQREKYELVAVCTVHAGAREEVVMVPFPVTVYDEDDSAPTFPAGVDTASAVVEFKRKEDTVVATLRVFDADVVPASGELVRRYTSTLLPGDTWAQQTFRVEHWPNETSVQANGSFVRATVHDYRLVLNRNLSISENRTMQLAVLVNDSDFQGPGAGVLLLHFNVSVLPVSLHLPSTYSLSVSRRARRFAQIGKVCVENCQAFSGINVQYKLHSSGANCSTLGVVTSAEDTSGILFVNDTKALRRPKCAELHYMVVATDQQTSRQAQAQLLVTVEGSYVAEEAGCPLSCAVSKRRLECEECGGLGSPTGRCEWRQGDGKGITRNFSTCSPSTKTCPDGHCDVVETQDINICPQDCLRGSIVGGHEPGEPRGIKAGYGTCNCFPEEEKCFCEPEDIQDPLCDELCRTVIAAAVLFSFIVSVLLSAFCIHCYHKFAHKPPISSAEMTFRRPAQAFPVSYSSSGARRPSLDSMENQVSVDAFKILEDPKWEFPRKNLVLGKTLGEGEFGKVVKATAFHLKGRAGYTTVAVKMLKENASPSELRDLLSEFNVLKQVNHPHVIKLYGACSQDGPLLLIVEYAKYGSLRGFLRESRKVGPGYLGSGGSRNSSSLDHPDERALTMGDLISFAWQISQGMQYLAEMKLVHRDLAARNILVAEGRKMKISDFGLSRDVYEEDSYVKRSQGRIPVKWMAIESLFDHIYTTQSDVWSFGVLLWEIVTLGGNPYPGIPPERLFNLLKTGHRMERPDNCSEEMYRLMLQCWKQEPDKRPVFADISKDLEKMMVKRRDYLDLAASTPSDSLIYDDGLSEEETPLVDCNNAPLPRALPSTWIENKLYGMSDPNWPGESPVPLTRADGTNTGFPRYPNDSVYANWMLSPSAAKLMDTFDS
Kind of data set: Inhibition of proliferation of Ba/F3 KIF5B-RET cells (CellTiter-Glo). Format: cell-based. The conditions noted are these: 72 to 144 hours. Put shortly:
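Cells plated overnight, then exposed to compound dilutions in DMSO/medium at 37° C, 5% CO2 for 72 to 144 hours. Viability read by CellTiter-Glo luminescence; IC50 from inhibition rates fitted by nonlinear regression.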

Data set [3] has as its system subcutaneous transplanted tumor of Ba/F3 KIF5B-RET cells. Kind of data set: Tumor suppression on Ba/F3 KIF5B-RET transplanted tumor model. The conditions noted are these: 10 mg/kg oral twice a day. In kind it is in vivo, BALB/c nude mice. How it is done:
Ba/F3 KIF5B-RET cells were removed from the cell bank, resuscitated and added to RPMI1640 medium (RPMI1640+10% FBS+1% Glu+1% P/S), then cultured in a CO2 incubator (incubator temperature was 37° C., CO2 concentration was 5%), and when the cell number expanded to the required number for in vivo inoculation, Ba/F3 KIF5B-RET cells were collected. The cells were counted with an automatic cell counter, resuspended with PBS according to the count results, made into a cell suspension (density was 2×10^7/mL), and placed in an ice box for use.
Female BALB/c nude mice aged 6-8 weeks were used, weighing about 18-22 g. Mice were reared in SPF animal room, and were reared in a single cage with 5 mice in each cage. All cages, bedding and water were sterilized at high temperature before use, and all animals were allowed to eat and drink freely. Nude mice were labeled with disposable universal ear tags for mice and rats before the start of the experiment, and the skin of the inoculation site was disinfected with 75% medical alcohol before inoculation. 0.1 mL (containing 2*10^6 cells) of Ba/F3 KIF5B-RET cells were inoculated subcutaneously on the right back of each mouse. Group administration was initiated when the tumor volume reached 60-200 mm^3, with 5 mice in each group. Each test compound was administered orally twice a day for 14 days. The tumor volume and the weight of mice were measured twice a week, and the tumor TGI (%) was calculated.
The tumor volume (mm^3) was calculated as V=0.5*D*d*d, where D and d were the long and short diameters of the tumor, respectively.
When there was no tumor regression, TGI (%)=[(1-(mean tumor volume at the end of the administration in a treatment group−mean tumor volume at the start of administration in the treatment group))/(mean tumor volume at the end of treatment in the solvent control group−mean tumor volume at the start of treatment in the solvent control group)]×100%.
When there was tumor regression, TGI (%)=[1-(mean tumor volume at the end of administration in a treatment group−mean tumor volume at the beginning of administration in the treatment group)/mean tumor volume at the beginning of administration in the treatment group]×100%.

pIC50: −log10 of the molar value.

T2 sequence (P07949 29-1114): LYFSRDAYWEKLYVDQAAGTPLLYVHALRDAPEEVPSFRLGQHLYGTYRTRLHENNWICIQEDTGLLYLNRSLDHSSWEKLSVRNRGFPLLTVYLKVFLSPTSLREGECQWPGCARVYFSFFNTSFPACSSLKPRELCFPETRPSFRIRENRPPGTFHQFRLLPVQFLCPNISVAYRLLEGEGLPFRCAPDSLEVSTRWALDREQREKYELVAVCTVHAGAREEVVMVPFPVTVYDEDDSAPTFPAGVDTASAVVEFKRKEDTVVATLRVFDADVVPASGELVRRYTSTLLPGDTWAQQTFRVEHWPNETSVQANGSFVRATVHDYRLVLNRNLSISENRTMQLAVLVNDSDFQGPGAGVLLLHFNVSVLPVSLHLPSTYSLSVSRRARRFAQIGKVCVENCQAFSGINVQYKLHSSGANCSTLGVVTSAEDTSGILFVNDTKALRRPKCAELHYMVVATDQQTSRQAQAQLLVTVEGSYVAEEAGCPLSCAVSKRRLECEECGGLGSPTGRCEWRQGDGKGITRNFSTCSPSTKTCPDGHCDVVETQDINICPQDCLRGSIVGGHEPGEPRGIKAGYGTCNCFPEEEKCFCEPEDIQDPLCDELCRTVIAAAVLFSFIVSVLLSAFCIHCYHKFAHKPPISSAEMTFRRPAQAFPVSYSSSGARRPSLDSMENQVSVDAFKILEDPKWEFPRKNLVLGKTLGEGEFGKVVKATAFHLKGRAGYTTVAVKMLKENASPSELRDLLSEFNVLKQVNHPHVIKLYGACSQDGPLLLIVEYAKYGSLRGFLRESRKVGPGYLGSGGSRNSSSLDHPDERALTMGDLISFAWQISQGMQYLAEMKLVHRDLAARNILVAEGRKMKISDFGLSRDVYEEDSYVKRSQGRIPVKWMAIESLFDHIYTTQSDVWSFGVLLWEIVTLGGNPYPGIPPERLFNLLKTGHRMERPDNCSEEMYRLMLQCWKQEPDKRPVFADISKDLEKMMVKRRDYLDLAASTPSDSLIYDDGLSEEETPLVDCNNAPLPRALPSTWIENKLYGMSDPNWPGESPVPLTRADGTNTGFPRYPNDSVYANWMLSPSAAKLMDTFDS
T1 sequence (P07949 29-1114 M918T): as the sequence (P07949 29-1114) above, with M890T counted along it

`COc1ncc(CN2C3CC2CN(c2ccc(-c4cc(N5CC(C(C)(C)O)C5)cn5ncc(C#N)c45)cn2)C3)cc1F` [Embodiment 31, 4-(6-(6-((5-Fluoro-6-methoxypyridin-3-yl)methyl)-3,6-diazabicyclo[3.1.1]heptan-3-yl)pyridin-3-yl)-6-(3-(2-hydroxypropan-2-yl)azetidin-1-yl)pyrazolo[1,5-a]pyridine-3-carbonitrile] showed a negative-log IC50 (pIC50) against RET M918T of 9.33. The compound also gave a pIC50 against RET kinase of 9.12. Also, on KDR kinase, the negative logarithm of the IC50 (pIC50) was 7.64 and the “Ratio (KDR/RET)” value was found to be 30. The negative-log IC50 (pIC50) in data set [1] is 8.18. For the same compound, in data set [2], the MRT came out at 4.71 h, the Cmax is 3120 ng/mL, the AUC(0-t) came to 18900 ng·h/mL and the AUC(0-inf) amounted to 18900 ng·h/mL. Also, in data set [2], the half-life was 2.66 h and the Tmax is 0.5 h.
The compound `COc1ccc(CN2C3CC2CN(c2ccc(-c4cc(C#CC(C)(C)O)cn5ncc(C#N)c45)cn2)C3)cn1` [Embodiment 8, 6-(3-Hydroxy-3-methylbut-1-yn-1-yl)-4-(6-(6-((6-methoxypyridin-3-yl)methyl)-3,6-diazabicyclo[3.1.1]heptan-3-yl)pyridin-3-yl)pyrazolo[1,5-a]pyridine-3-carbonitrile] gave a negative logarithm of the IC50 (pIC50) on RET M918T of 9.17. On RET kinase, this compound had a pIC50 of 9.32. At KDR kinase, the pIC50 is 7.80 and the “Ratio (KDR/RET)” value was determined as 34. Besides, the negative-log IC50 (pIC50) in data set [1] is 7.77. At Ba/F3 KIF5B-RET cells, the negative logarithm of the IC50 (pIC50) is 7.92. For the same compound, in data set [2], the MRT amounted to 4.91 h, the Cmax was determined as 3710 ng/mL, the AUC(0-t) came to 21400 ng·h/mL and the AUC(0-inf) worked out at 21500 ng·h/mL. Further, in data set [2], the half-life was 3.37 h and the Tmax was found to be 0.5 h.
On to `COc1ccc(CN2C3CC2CN(c2ccc(-c4cc(N5CC(C(C)(C)O)C5)cn5ncc(C#N)c45)cn2)C3)cn1` [Embodiment 7, 6-(3-(2-Hydroxypropan-2-yl)azetidin-1-yl)-4-(6-(6-((6-methoxypyridin-3-yl)methyl)-3,6-diazabicyclo[3.1.1]heptan-3-yl)pyridin-3-yl)pyrazolo[1,5-a]pyridine-3-carbonitrile], for which, at RET M918T, the pIC50 was 8.97. In addition, on RET kinase, the pIC50 is 9.16. On KDR kinase, the pIC50 was 7.96 and the “Ratio (KDR/RET)” value is listed as 16. Further, the negative-log IC50 (pIC50) in data set [1] is 7.96. Besides, on Ba/F3 KIF5B-RET cells, the pIC50 is 7.89. Further, in data set [2], the mean residence time MRT was 3.76 h, the Cmax is 3280 ng/mL, the AUC(0-t) was determined as 13800 ng·h/mL and the AUC(0-inf) came out at 13800 ng·h/mL. In data set [2], the half-life was 2.18 h and the Tmax was 0.5 h. Besides, the “Tumor volume (Mean ± SD) Day 0” value in data set [3] (Day 0) is reported as 100.80 ± 31.28 mm^3. Besides, in data set [3] (Day 14), the “TGI (%) Day 14” value came out at 90.82% and the “Tumor volume (Mean ± SD) Day 14” value is 232.46 ± 133.65 mm^3.
As for `COc1ccc(CN2C3CC2CN(c2ccc(-c4cc(C#CC(C)(C)N)cn5ncc(C#N)c45)cn2)C3)cn1` [Embodiment 17, 6-(3-Amino-3-methylbut-1-yn-1-yl)-4-(6-(6-((6-methoxypyridin-3-yl)methyl)-3,6-diazabicyclo[3.1.1]heptan-3-yl)pyridin-3-yl)pyrazolo[1,5-a]pyridine-3-carbonitrile], the pIC50 against RET M918T is 9.42; on RET kinase, 9.41; against KDR kinase it was 8.09; in data set [1], 7.88. Also, at KDR kinase, the “Ratio (KDR/RET)” value is 21.
On to `CC(C)(O)C#Cc1cc(-c2ccc(N3CCC(C)(NC(=O)c4ncccc4Cl)CC3)nc2)c2c(C#N)cnn2c1` [Embodiment 85, 3-Chloro-N-(1-(5-(3-cyano-6-(3-hydroxy-3-methylbut-1-yn-1-yl)pyrazolo[1,5-a]pyridin-4-yl)pyridin-2-yl)-4-methylpiperidin-4-yl)picolinamide], for which the negative-log IC50 (pIC50) is 9.10 on RET M918T, 9.42 against RET kinase, 7.34 against KDR kinase and 8.03 in data set [1]. Moreover, at KDR kinase, the “Ratio (KDR/RET)” value turned out to be 122.

These data come from patent US20230406865A1, “CRYSTAL FORM OF FREE BASE OF INHIBITOR CONTAINING BICYCLIC RING DERIVATIVE AND PREPARATION METHOD AND APPLICATION OF CRYSTAL FORM” (SHANGHAI HANSOH BIOMEDICAL CO., LTD., priority 2020, published 2023).
